Measurements reported in patent US6348464B1, “Pyrrolecarbonylimino derivatives as naaladase inhibitors” (Guilford Pharmaceuticals, Inc., priority 1999, dated 2002).
Where a name gives a salt, the structure may show the parent alone. Read-outs that look alike come from different tables or passages of the source.

Columns and labels:
[1] = system: cortical cell cultures; assay: In vitro assay on ischemia (potassium cyanide and 2-deoxyglucose insult); type: cell-based; conditions: 1 h, read-out: EC50, concentration required to cause a 50% reduction in glutamate toxicity following an ischemic insult
Method: To examine the in vitro effect of the compounds of formula I on ischemia, cortical cell cultures were treated with various compounds of formula I during an ischemic insult utilizing potassium cyanide and 2-deoxyglucose, and for one hour thereafter (for experimental details, see Vornov et al., J. Neurochem., Vol. 65, No. 4, pp. 1681-1691 (1995)). Neuroprotective effect is expressed as EC50, the concentration of the compound which is required to cause a 50% reduction in glutamate toxicity following an ischemic insult.

[2] = target: T1, NAALADase (Homo sapiens, UniProt Q04609); assay: In vitro inhibition of NAALADase activity; type: biochemical; conditions: 3-H-NAAG substrate, 37° C.; read-out: K1 (nM), in vitro inhibition of NAALADase activity
T1 construct: from tissue
Method: Protocol For Assaying In Vitro Inhibition of NAALADase Activity
The following were combined in each assay tube: 100 μL of 10 mM CoCl2, 250 μL of 200 mM Tris chloride, 100 μL tissue, 100 μL of 10 mM NAALADase inhibitor in Bakers H2O, and Bakers H2O to make a total volume of 950 μL. Each tube was then incubated for 10 minutes in a 37° C. water bath. 50 μL of 3-H-NAAG was then added to each assay tube and incubated for an additional 15 minutes in a 37° C. water bath. The assay was stopped by adding 1.0 ml of 0.1 M sodium phosphate.
Glutamate released by the action of the NAALADase enzyme was separated from the assay solution using an anion exchange resin. The resin was equilibrated to 25° C., 2.0 ml of the resin was added to a Pasteur pipette pre-loaded with a single glass bead, and each column was washed twice with distilled H2O. A column was placed over a scintillation vial and 200 μL of an assay sample was loaded onto the column. After draining, glutamate was eluted using two 1.0 ml washes of 1 M formic acid. After addition of 10 ml of scintillation cocktail, each sample was counted for 2 minutes on a scintillation counter.

T1 sequence (Q04609 whole entry): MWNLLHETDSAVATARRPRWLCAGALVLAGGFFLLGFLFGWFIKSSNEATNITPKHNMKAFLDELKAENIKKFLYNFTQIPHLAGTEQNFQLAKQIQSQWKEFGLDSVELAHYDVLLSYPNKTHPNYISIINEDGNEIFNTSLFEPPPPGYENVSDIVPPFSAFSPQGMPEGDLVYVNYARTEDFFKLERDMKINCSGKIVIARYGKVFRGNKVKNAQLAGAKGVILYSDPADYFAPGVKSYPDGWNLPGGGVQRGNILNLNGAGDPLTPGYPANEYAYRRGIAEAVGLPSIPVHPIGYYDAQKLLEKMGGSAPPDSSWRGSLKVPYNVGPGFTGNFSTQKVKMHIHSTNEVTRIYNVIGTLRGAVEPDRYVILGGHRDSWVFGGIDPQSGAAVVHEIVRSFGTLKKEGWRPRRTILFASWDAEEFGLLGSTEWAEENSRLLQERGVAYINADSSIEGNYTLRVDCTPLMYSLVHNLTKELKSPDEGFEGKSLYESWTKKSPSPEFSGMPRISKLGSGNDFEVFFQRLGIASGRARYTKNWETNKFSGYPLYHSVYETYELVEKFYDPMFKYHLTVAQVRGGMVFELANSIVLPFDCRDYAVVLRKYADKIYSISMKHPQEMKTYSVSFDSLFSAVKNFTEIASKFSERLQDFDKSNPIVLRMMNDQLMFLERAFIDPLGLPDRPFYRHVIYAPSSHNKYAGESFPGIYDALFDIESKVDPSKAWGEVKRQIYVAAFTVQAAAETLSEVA

Row | Compound | EC50 ([1]; cortical cell cultures, treated during potassium cyanide and 2-deoxyglucose insult and for one hour thereafter) | Ki [2] | EC50 [1]
1 | O=C(Nc1ccc(S(=O)(=O)O)c2cc(S(=O)(=O)O)cc(S(=O)(=O)O)c12)c1cccc([N+](=O)[O-])c1 [8-(3-nitrobenzamido)-1,3,5-naphthalenetrisulfonic acid] | > 1000 nM | 20200 nM | –
2 | Cc1ccc(C(=O)Nc2ccc(S(=O)(=O)O)c3cc(S(=O)(=O)O)cc(S(=O)(=O)O)c23)cc1NC(=O)c1cccc(NC(=O)Nc2cccc(C(=O)Nc3cc(C(=O)Nc4ccc(S(=O)(=O)O)c5cc(S(=O)(=O)O)cc(S(=O)(=O)O)c45)ccc3C)c2)c1 [Suramin, sodium salt, 8,8′-[carbonylbis[imino-3,1-phenylenecarbonylimino (4-methyl-3,1-phenylene)carbonylimino]]bis-1,3,5-naphthalenetrisulfonic acid hexasodium salt] | – | 527 nM | 24.7 nM
